Measured values reported in patent publication US10238713B2, “Cyclic tetrapeptides and therapeutic applications thereof” (LODZ UNIVERSITY OF TECHNOLOGY, priority 2010, dated 2019).
Non-standard residues stand in square brackets, D forms with d. Residues, ends and D or L forms follow the SMILES beside them. Oic = O=C(O)[C@@H]1C[C@@H]2CCCC[C@@H]2N1; Phe(4-Me) = Cc1ccc(C[C@H](N)C(=O)O)cc1; 2Nal = N[C@@H](Cc1ccc2ccccc2c1)C(=O)O; β3hY = N[C@H](CC(=O)O)Cc1ccc(O)cc1; Hyp = O=C(O)[C@@H]1C[C@@H](O)CN1; 3Pal = N[C@@H](Cc1cccnc1)C(=O)O; Tic = O=C(O)[C@@H]1Cc2ccccc2CN1; β3hF = N[C@H](CC(=O)O)Cc1ccccc1; ΔPro = O=C(O)[C@@H]1C=CCN1

What was measured:
[1] = tested on: PHA-induced proliferation of human peripheral blood mononuclear cells (PBMC); assay: Proliferative response of PBMC to PHA (MTT); format: cell-based; conditions: four-day incubation, FIGS. 9A-9F
Description: PBMC were isolated by centrifugation on Ficoll-uropoline gradient (density 1.077 g/ml) (Lymphoprep; PAA Laboratories), at 800×g for 20 min at 4° C. The interphase cells, consisting of lymphocytes (20%) and monocytes (80%) were then washed three times with Hanks' medium and re-suspended in the culture medium at density of 2×10^6 cells/ml.
The isolated PBMC were distributed into 96-well flat-bottom plates in 100 μl aliquots (2×10^5 cells/well). PHA was used at concentration of 5 μg/ml. The compounds were tested at concentrations of 1, 10 and 100 μg/ml. DMSO at appropriate dilutions served as control. After a four-day incubation in a cell culture incubator, the proliferative response of cells was determined by the colorimetric MTT method (Hansen et al., J. Immunol. Methods, 1989, pp. 203-210). The data are presented as a mean OD value from quadriplicate wells ±standard error (SE). The cultures “Control (−)” contained no mitogen (PHA). The cultures “Control (PHA)” contained PHA but not cyclic tetrapeptides.
Briefly, 25 μl of MTT (5 mg/ml) stock solution was added per well at the end of cell incubation and the plates were incubated for 3 h in a cell culture incubator. Then, 100 μl of the extraction buffer (20% SDS with 50% DMF, pH 4.7) was added. After additional overnight incubation, the optical density was measured at 550 nm (Dynatech 5000).

human PBMC = assay: Toxicity test: PBMC survival in 24 h culture (MTT); conditions: ANOVA, FIGS. 8A-8F (4B8M repeated per figure)
[2] = tested on: mice, carrageenan air pouch; assay: Carrageenan air-pouch test (exudate cell number); format: in vivo, mouse; conditions: peptides 100 μg i.p. one hour before carrageenan, 24 h; FIGS. 18A-18B
Description: (§1) In this and the air-pouch test, 1.5 mg peptide was dissolved in 300 μl of DMSO, then in 0.9% NaCl to achieve the desired dose (250 μg/0.2 ml or 100 μg/0.2 ml). Carrageenan (Sigma) was dissolved in 0.9% aqueous NaCl (overnight). 50 μl of 2% carrageenan solution was injected intradermally into hind foot pads. The peptides were given in a single 250 μg dose (0.2 ml) per mouse intraperitoneally (i.p.), 30 min before carrageenan administration. Dexamethasone (DEX) (Dexaven, Polfa, Poland), a reference drug, was given i.p. in dose 25 μg per mouse. Control mice were administered i.p. appropriately diluted solvent (DMSO in aqueous NaCl) instead of peptides. The foot pads of “background” (BG) mice were injected with 50 μl of 0.9% aqueous NaCl. Foot pad edema was measured with a spring caliper, 2 h, 3 h and 4 h after administration of carrageenan. The results are presented in FIGS. 17A, 17B and 17C as mean values of the antigen-specific increase of the foot pad thickness measured in 5 mice in each experimental group and expressed in mm ±SE (only results from measurements 4 h following administration of carrageenan are presented in figures). Statistics: FIG. 17A: Control vs: DEX P=0.0001; 4B8M P=0.0001; P25 NS (P=1.0000); P28 NS (P=1.0000); P31 NS (P=0.0528); P35 P=0.0008 (ANOVA of Kruskal-Wallis); FIG. 17B: Statistics: Control vs: P22 NS (P=1.0000); P26 NS (P=1.0000); P27 P=0.0050; P30 P=0.0004; P33-b NS (P=1.0000); SP00-b P=0.0001; P00S-b NS (P=1.0000) (ANOVA of Kruskal-Wallis); FIG. 17C: Statistics: Control vs: P21 P=0.0147; P23-2 P=0.0083; P24 P=0.0001; P29 NS (P=0.9999); P32 P=0.0001; P33 NS (P=0.6806); P34 NS (P=0.1920) (ANOVA).
Air pouches were formed by subdermal injection into the dorsal region (in a halothane anesthesia) of 5 cm^3 of air (needle 23G x 11/4, 5 ml syringe). On day 3 the air pouches were given an additional 2 ml of air and an inflammatory process was elicited by an intra-pouch injection of 1% of carrageenan in 0.5 ml of 0.9% aqueous NaCl. The peptides were given i.p. at a dose of 100 μg one hour before carrageenan injection into the air pouch. The mice from the “background” (BG) group were given 0.9% aqueous NaCl i.p. and 0.9% aqueous NaCl into the air pouches. Control mice were given appropriately diluted DMSO i.p. and carrageenan into the air pouches. 24 h after carrageenan injection, the mice were sacrificed by cervical dislocation, the air pouches were supplemented with 1 ml of 0.9% aqueous NaCl and the exudates from the air pouches were aspirated using a syringe. The exudates were diluted with 0.9% aqueous NaCl and the cells were counted in a Bürker hemocytometer. Data are presented in FIGS. 18A and 18B as the mean values from 10 mice/group (cell number×10^6 per mouse) ±SE. Then the cells were centrifuged and 0.1 ml of the supernatant was saved for TNF-α determination (see Determination of TNF-α activity, above). The cell pellets were used to perform smears on microscopic glasses, which were stained with Giemsa and May-Grünwald reagents for evaluation of mast cell degranulation. Cell analysis was performed by a histologist using a light microscope and 1000× magnification. The content of intact and degranulated mast cells is given in percentage (mean values from 10 mice/group) ±SE. Statistics: FIG. 18A: BG vs Control P=0.0000; Control vs: DEX P=0.0034; 4B8M P=0.0005; P22 NS (P=0.7275); P26 P=0.0032; P27 NS (P=0.0659); P35 NS (P=1.0000) (ANOVA of Kruskal-Wallis); FIG. 18B: Control vs: P21 NS (P=0.322); P23-2 P=0.0020; P24 P=0.0001; P25 P=0.0418; P28 NS (P=0.3502); P29 NS (P=0.0582); P30 P=0.0006; P31 P=0.0078; P32 P=0.0340; P33 NS (P=0.9993); P34 NS (p=0.0566) (ANOVA).

[3] = tested on: mice, carrageenan-induced foot pad edema; assay: Carrageenan-induced foot-pad edema test; format: in vivo, mouse; conditions: 4 h after carrageenan; peptides 250 μg i.p., DEX 25 μg i.p., 30 min before; FIGS. 17A-17C
Description: as §1

Structure (SMILES)	PHA-induced PBMC proliferation, P vs DMSO at appropriate dilution ([1]; 10 μg/ml)	PHA-induced PBMC proliferation, P vs DMSO at appropriate dilution ([1]; 100 μg/ml)	PBMC survival, P vs DMSO at appropriate dilution (human PBMC; 10 μg/ml)	PBMC survival, P vs DMSO at appropriate dilution (human PBMC; 100 μg/ml)	air pouch exudate cell number, P vs Control [2]	foot pad edema (increase of foot pad thickness), P vs Control [3]
O=C1C[C@H](Cc2ccccc2)NC(=O)[C@@H]2C[C@@H]3CCCC[C@@H]3N2C(=O)[C@@H]2CCCN2C(=O)[C@H](Cc2ccccc2)N1 [I-Y] (cyclo(FP[Oic][β3hF]))	0.0001	0.0001	0.9992	0.0001	0.0032	1.0000
O=C1C[C@H](Cc2ccccc2)NC(=O)[C@@H]2CCCN2C(=O)[C@@H]2C=CCN2C(=O)[C@H](Cc2ccccc2)N1 [I-S] (cyclo(F[ΔPro]P[β3hF]))	0.0275	0.0001	0.9753	1.0000	0.7275	1.0000
O=C1C[C@H](Cc2ccccc2)NC(=O)[C@@H]2CCCN2C(=O)[C@@H]2CCCN2C(=O)[C@H](Cc2cccnc2)N1 [I-AC] (cyclo([3Pal]PP[β3hF]))	0.9850	0.9871	0.8178	0.9882	0.0006	0.0004
O=C1C[C@H](Cc2ccccc2)NC(=O)[C@@H]2CCCN2C(=O)[C@@H]2C[C@@H](O)CN2C(=O)[C@H](Cc2ccccc2)N1 [I-R] (cyclo(F[Hyp]P[β3hF]))	0.7122	0.0436	0.6250	0.0019	0.322	0.0147
Cc1ccc(C[C@@H]2NC(=O)C[C@H](Cc3ccccc3)NC(=O)[C@@H]3CCCN3C(=O)[C@@H]3CCCN3C2=O)cc1 [I-Z] (cyclo(PP[β3hF][Phe(4-Me)]))	0.9121	0.8195	0.9997	0.0236	0.0659	0.0050
O=C1C[C@H](Cc2ccccc2)NC(=O)[C@@H]2CCCN2C(=O)[C@@H]2CCCN2C(=O)[C@H](Cc2ccc3ccccc3c2)N1 [I-U] (cyclo([2Nal]PP[β3hF]))	1.0000	0.0002	0.9972	0.4949	0.0020	0.0083
O=C1C[C@H](Cc2ccc(O)cc2)NC(=O)[C@@H]2CCCN2C(=O)[C@@H]2CCCN2C(=O)[C@H](Cc2ccccc2)N1 [I-AG] (cyclo(FPP[β3hY]))	1.0000	1.0000	0.0001	0.0001	0.9993	0.6806
O=C1C[C@H](Cc2ccccc2)NC(=O)[C@@H]2Cc3ccccc3CN2C(=O)[C@@H]2CCCN2C(=O)[C@H](Cc2ccccc2)N1 [I-AB] (cyclo(FP[Tic][β3hF]))	1.0000	0.0001	0.8876	0.0001	0.0582	0.9999
